As usually defined, the logP is a log measure of how a compound divides between an organic and an aqueous phase.

Where two headings read alike, the source gives them in different places.

One data set in a line: physchem. The note with it: octanol/water.
For data set [1], the system named is guinea pig foot pad stratum corneum. Kind of data set: Increase in extensibility of guinea pig foot pad stratum corneum. Also noted: Increase in stratum corneum extensibility: unit not given here. How it is done: The ability of an additive to enhance the delivery to skin of 2-hydroxyoctanoic acid was measured in terms of the increase in extensibility of guinea pig foot pad stratum corneum following contact with each solution.
In this experiment, pieces of guinea pig foot pad stratum corneum, equilibrated at a relative humidity of 65%, were immersed in each solution for 3 hours at 20° C., and then removed, blotted dry and re-equilibrated at the same relative humidity. The extensibility of each piece of guinea pig foot pad stratum corneum was measured before and after this treatment in an extensiometer according to the method described in European Pat. No. 7785.

Data set [2] in a line: Dielectric constant of oils measured in a liquid state. The class given is physicochemical. The text has this: The product can also optionally comprise an oil, fat or wax, herein referred to as "oil" having a dielectric constant of not greater than 3.0.
Examples of preferred "oils", when employed, together with their dielectric constants measured when they are in a liquid state are given below: […]

For data set [3] the following is noted: as recorded in Handbook of Chemistry & Physics, 57th Edition 1976-77; cited from earlier work.
The subject of data set [4] is guinea pig stratum corneum. Kind of data set: Delivery of C14 labelled phenol to guinea pig stratum corneum. The settings on record: in words.
Method: The phenol used in the preparation of each emulsion was C^14 labelled phenol.
Pieces of guinea pig stratum corneum were immersed in each of the above emulsions for 20 hours, after which they were removed, blotted dry and the amount of phenol retained by the corneum was measured by a radio tracer technique using a standard methodology.

As to `CCCCCCC(O)C(=O)O` (stereo not drawn) [2-hydroxyoctanoic acid], the logP in the data set “physchem” came out at 2.24. In addition, the “Increase in stratum corneum extensibility” value in data set [1] (0.2 M 2-hydroxyoctanoic acid + additive at 5% w/w, 3 hours at 20° C., relative humidity 65%) is recorded as 5. For the same compound, the “Increase in stratum corneum extensibility / delivery to skin, in words” value in data set [1] (conclusion in words) is given as “greatly enhanced”. The compound `CCCCCCC(=O)C(=O)O` [2-ketooctanoic acid] displayed a logP in “physchem” of 3.2. Same read-out and setting: with `CN1C(=O)NC(=O)C(C)(C)C1=O` [5,5-dimethyl, 1-methyl barbituric acid] the figure was 1.09; with `O=Cc1ccccc1O` [O--hydroxybenzaldehyde], 1.7. `CCCCCCCCO` [Octanol] yielded a Dielectric constant in data set [2] of 10.3. Consider `Nc1ncnc2c1ncn2[C@@H]1O[C@H](COP(=O)(O)OP(=O)(O)O)[C@@H](O)[C@H]1O` [adenosine diphosphate], for which the logP in “physchem” worked out at 0.89. As to `Nc1ncnc2c1ncn2[C@@H]1O[C@H](COP(=O)(O)OP(=O)(O)OP(=O)(O)O)[C@@H](O)[C@H]1O` [adenosine triphosphate], the logP in “physchem” was determined as 1.64.

For the compound `COc1ccc2c3c1O[C@H]1[C@@H](O)C=C[C@H]4[C@@H](C2)N(C)CC[C@@]341` [codeine, reference compound], the logP in the data set “physchem” came out at 1.01.

Consider `CCCCC/C=C\C/C=C\CCCCCCCC(=O)O` [linoleic acid], for which the Dielectric constant in data set [3] was 2.71. With `CCCCCCCCCC` [n-decane], the Dielectric constant in data set [3] was 1.99. Turning to `CCCCCCCCCCCC` [n-dodecane], the Dielectric constant in data set [3] is given as 2.02. In data set [2], `CCCCCCCCCCCCCCCC` [n-hexadecane] came in with a Dielectric constant below 3.0. Still for that read-out and setting: with `CCCCCCCCCCCCCCCCCC` [n-octadecane] the figure was below 3.0; with `CCCCCCCCCCCCCC` [n-tetradecane], below 3.0. For the compound `CCCCCCCC/C=C\CCCCCCCC(=O)O` [oleic acid], the Dielectric constant in data set [3] is 2.46. On to `Oc1ccccc1` [phenol], for which, in data set [4], the “Amount of phenol delivered to the skin relative to ordinary emulsion (Control)” value is “enhanced when a gel phase is present”. Consider `COc1cc(NS(=O)(=O)c2ccc(N)cc2)ncn1` [sulphamonomethoxine, reference compound], for which the logP in “physchem” came out at 0.85. The compound `Nc1ccc(S(=O)(=O)Nc2ccnn2-c2ccccc2)cc1` [sulphaphenzole, reference compound] came in with a logP in “physchem” of 1.57. As for `COC1=CC=C2[C@H]3Cc4ccc(OC)c5c4[C@@]2(CCN3C)[C@H]1O5` [thebaine], the logP in “physchem” stood at 1.91.

Source of the values: patent US4699924A, “Skin treatment composition” (priority 1983, dated 1987).
